Measured values as given in patent US20180099931A1 (AbbVie S.à.r.l., priority 2016, published 2018).
Read-outs that look alike come from different tables or passages of the source.

Biological target: T1, F508delCFTR (Homo sapiens, UniProt P13569, DEL508-508)
T1 construct: expressed in transfected cells; host or cells: CFBE41o- human lung-derived epithelial cells (CFBE4lo-F508delCFTR-HRP), doxycycline-inducible
Test: Cell Surface Expression-Horse Radish Peroxidase (CSE-HRP) Assay;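 as to Maximum % activity (with co-corrector): co-corrector and positive control are both the same reference corrector at 2 µM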;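 as to Maximum % activity (without co-corrector): percent of the 2 µM on-plate positive control corrector response above DMSO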
Format: cell-based
Details: for Emax / Maximum % activity (with co-corrector): maximum at any tested concentration, normalized to on-plate positive control; for Emax: read-out: Maximum % activity (without co-corrector); for Maximum % activity (with co-corrector): with co-corrector (2 μM)

[1] = test compound without co-corrector
[2] = test compound without co-corrector, read-out: EC50 (without co-corrector)
[3] = with co-corrector (2 μM of 3-[(2R,4R)-4-({[1-(2,2-difluoro-1,3-benzodioxol-5-yl)cyclopropyl]carbonyl}amino)-7-methoxy-3,4-dihydro-2H-chromen-2-yl]benzoic acid), read-out: EC50 (with co-corrector)

T1 sequence (P13569 with tags, fused parts or gaps DEL508-508): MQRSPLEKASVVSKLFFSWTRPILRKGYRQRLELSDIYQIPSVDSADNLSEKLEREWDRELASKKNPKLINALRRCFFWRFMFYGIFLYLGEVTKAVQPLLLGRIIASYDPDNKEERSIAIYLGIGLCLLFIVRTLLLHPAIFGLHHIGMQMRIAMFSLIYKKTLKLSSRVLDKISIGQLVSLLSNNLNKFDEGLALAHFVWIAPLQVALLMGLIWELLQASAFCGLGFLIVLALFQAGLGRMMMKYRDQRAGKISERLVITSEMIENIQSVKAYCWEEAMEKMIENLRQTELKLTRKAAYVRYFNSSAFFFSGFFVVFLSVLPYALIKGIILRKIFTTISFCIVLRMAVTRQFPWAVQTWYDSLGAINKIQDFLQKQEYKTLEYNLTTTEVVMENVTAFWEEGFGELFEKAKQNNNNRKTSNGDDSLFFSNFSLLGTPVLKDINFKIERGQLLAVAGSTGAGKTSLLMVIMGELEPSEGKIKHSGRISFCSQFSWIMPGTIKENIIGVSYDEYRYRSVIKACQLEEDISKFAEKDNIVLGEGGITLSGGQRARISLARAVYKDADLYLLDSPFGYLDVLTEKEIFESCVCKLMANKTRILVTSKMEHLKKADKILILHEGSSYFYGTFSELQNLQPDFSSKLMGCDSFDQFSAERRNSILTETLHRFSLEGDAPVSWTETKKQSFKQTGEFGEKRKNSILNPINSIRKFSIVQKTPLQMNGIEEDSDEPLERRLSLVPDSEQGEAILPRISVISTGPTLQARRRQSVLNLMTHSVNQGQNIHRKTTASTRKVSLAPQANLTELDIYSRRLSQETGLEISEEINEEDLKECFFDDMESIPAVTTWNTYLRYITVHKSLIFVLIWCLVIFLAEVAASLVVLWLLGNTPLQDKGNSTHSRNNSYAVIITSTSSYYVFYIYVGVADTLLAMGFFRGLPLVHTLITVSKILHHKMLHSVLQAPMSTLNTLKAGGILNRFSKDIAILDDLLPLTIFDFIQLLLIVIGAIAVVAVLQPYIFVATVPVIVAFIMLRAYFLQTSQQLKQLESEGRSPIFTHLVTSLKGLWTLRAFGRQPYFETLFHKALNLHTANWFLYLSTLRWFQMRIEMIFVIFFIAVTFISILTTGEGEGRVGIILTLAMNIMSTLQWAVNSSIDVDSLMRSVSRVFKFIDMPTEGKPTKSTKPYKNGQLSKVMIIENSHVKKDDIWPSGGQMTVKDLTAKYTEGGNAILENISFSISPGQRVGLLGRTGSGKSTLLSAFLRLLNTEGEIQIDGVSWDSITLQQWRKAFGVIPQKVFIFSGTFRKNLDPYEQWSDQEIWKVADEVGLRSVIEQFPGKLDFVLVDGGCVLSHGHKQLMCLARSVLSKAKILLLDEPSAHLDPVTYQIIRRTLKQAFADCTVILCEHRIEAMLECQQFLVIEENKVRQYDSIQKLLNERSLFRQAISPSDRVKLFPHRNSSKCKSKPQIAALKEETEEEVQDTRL

Compound	Emax [1] [%]	EC50 [2] [nM]	EC50 [3] [nM]	Maximum % activity (with co-corrector)
COc1ccc(C(C)(C)C)cc1CN[C@H]1[C@H](C(C)(C)C)[C@@H](C(=O)O)N(C(=O)C2CCc3ccccc3C2)[C@H]1c1ccccc1 (stereo partly drawn) [III-191]	> 200	< 1000	< 1000	+++ (≥350)
COc1ccc(C(C)(C)C)cc1CN[C@H]1[C@H](C(C)(C)C)[C@@H](C(=O)O)N(C(=O)C2C3C2[C@H]2CC[C@@H]3C2)[C@H]1c1ccccc1 (stereo partly drawn) [III-192]	> 200	< 1000	< 1000	+++ (≥350)
COc1ccc(C(C)(C)C)cc1CN[C@H]1[C@H](C(C)(C)C)[C@@H](C(=O)O)N(C(=O)C2CC2c2cccs2)[C@H]1c1ccccc1 (stereo partly drawn) [III-193]	> 200	< 1000	< 1000	+++ (≥350)
COc1ccc(C(C)(C)C)cc1CN[C@H]1[C@H](C(C)(C)C)[C@@H](C(=O)O)N(C(=O)c2cnn(-c3cccc(C)c3)c2C(C)C)[C@H]1c1ccccc1 [III-194]	100 to 200	1000 to 10000	< 1000	+++ (≥350)
COc1ccc(C(C)(C)C)cc1CN[C@H]1[C@H](C(C)(C)C)[C@@H](C(=O)O)N(C(=O)C2CCCCC2C)[C@H]1c1ccccc1 (stereo partly drawn) [III-195]	> 200	< 1000	< 1000	+++ (≥350)
COc1ccc(C(F)(F)F)cc1CN[C@H]1[C@H](C(C)(C)C)[C@@H](C(=O)O)N(C(=O)C2CC(C)CC(C)C2)[C@H]1c1ccccc1 (stereo partly drawn) [III-196]	100 to 200	< 1000	< 1000	+++ (≥350)
COc1ccc(C(F)(F)F)cc1CN[C@H]1[C@H](C(C)(C)C)[C@@H](C(=O)O)N(C(=O)C2CCC(C)(C)C2)[C@H]1c1ccccc1 (stereo partly drawn) [III-197]	100 to 200	< 1000	< 1000	+++ (≥350)
COc1ccc(C(F)(F)F)cc1CN[C@H]1[C@H](C(C)(C)C)[C@@H](C(=O)O)N(C(=O)C2CCC(C)C2)[C@H]1c1ccccc1 (stereo partly drawn) [III-198]	> 200	1000 to 10000	< 1000	+++ (≥350)
COc1ccc(C(F)(F)F)cc1CN[C@@H]1[C@@H](C(C)(C)C)[C@H](C(=O)O)N(C(=O)C2CCCCC2)[C@H]1c1ccccc1 [III-199]	< 100	1000 to 10000	1000 to 10000	++ (≥150 and <350)
COc1ncc(C(F)(F)F)cc1CN[C@H]1[C@H](C(C)(C)C)[C@@H](C(=O)O)N(C(=O)[C@@H]2OCC[C@@H]2Cn2cccn2)[C@H]1c1ccccc1 [III-200]	< 100	> 10000	1000 to 10000	++ (≥150 and <350)
COc1ncc(C(F)(F)F)cc1CN[C@H]1[C@H](C(C)(C)C)[C@@H](C(=O)O)N(C(=O)C2CC(C)CC(C)C2)[C@H]1c1ccccc1 (stereo partly drawn) [III-201]	100 to 200	< 1000	< 1000	+++ (≥350)
COc1ccc(C23CC(C2)C3)cc1CN[C@H]1[C@H](C(C)(C)C)[C@@H](C(=O)O)N(C(=O)C2CCCCC2)[C@H]1c1ccccc1 [III-202]	> 200	< 1000	< 1000	+++ (≥350)
COc1ccc(C(C)(C)C)cc1CN[C@H]1[C@H](C(C)(C)C)[C@@H](C(=O)O)N(C(=O)C2CCCC(C)(C)C2)[C@H]1c1ccccc1 (stereo partly drawn) [III-203]	> 200	< 1000	< 1000	+++ (≥350)
COc1ccc(C(C)(C)C)cc1CN[C@H]1[C@H](C(C)(C)C)[C@@H](C(=O)O)N(C(=O)C2CCCC2(C)C)[C@H]1c1ccccc1 (stereo partly drawn) [III-204]	> 200	< 1000	< 1000	+++ (≥350)
COc1ccc(C(C)(C)C)cc1CN[C@H]1[C@H](C(C)(C)C)[C@@H](C(=O)O)N(C(=O)C2CCCCC2C)[C@H]1c1cccnc1N(C)C (stereo partly drawn) [III-205]	> 200	1000 to 10000	< 1000	+++ (≥350)
COc1ccc(C(C)(C)C)cc1CN[C@H]1[C@H](C(C)(C)C)[C@@H](C(=O)O)N(C(=O)C2CCCC(C(F)(F)F)C2)[C@H]1c1cccnc1N(C)C (stereo partly drawn) [III-206]	> 200	1000 to 10000	< 1000	+++ (≥350)
COc1ncc(C2CCC2)cc1CN[C@H]1[C@H](C(C)(C)C)[C@@H](C(=O)O)N(C(=O)C2CC(C)CC(C)C2)[C@H]1c1ccccc1 (stereo partly drawn) [III-207]	100 to 200	1000 to 10000	< 1000	+++ (≥350)
COc1ncc(C2CCC2)cc1CN[C@H]1[C@H](C(C)(C)C)[C@@H](C(=O)O)N(C(=O)C2CCCCC2C)[C@H]1c1ccccc1 (stereo partly drawn) [III-208]	100 to 200	1000 to 10000	< 1000	+++ (≥350)
